Measured values: patent US6548496B2, “Substituted 3-cyano-[1.7], [1.5], and [1.8] naphthyridine inhibitors of tyrosine kinases” (American Cyanamid Company, priority 1999, dated 2003)

Experiments:
[1] = target: T1, recombinant human MEK 1 (MAPKK) / human ERK2 (MAPK) (Homo sapiens, UniProt P28482+Q02750); assay: Mitogen Activated Protein Kinase (MAPK) coupled Mek-Erk assay; assay type: biochemical; details: coupled MEK 1/ERK2 assay, 33P ATP; read-out: IC50, inhibition of Mitogen Activated Protein Kinase (Mek-Erk)
T1 construct: The recombinant enzymes used were prepared as GST fusion proteins of human ERK 2 and human MEK 1
Protocol: To evaluate inhibitors of the MAP (mitogen activated protein) kinase a two component coupled standard pharmacological test procedure, which measures phosphorylation of a serine/threonine residue in an appropriate sequence in the substrate in the presence and absence of a putative inhibitor, was used. Recombinant human MEK 1 (MAPKK) was first used to activate recombinant human ERK2 (MAPK) and the activated MAPK (ERK) was incubated with substrate (MEP peptide or MYC peptide) in the presence of ATP, Mg^+2 and radiolabeled ^33P ATP. The phosphorylated peptide was captured on a P 81 phosphocellulose filter (paper filter or embedded in microtiter plate) washed and counted by scintillation methods. […]
The reaction was run as follows in 50 mM Tris kinase buffer, pH 7.4 in a reaction volume of 50 ul. […] The filters or MTP were briefly air dried before addition of scintillant and samples were counted in the appropriate scintillation counter set up for reading ^33P isotope. […]
The raw data was captured as cpm Sample replicates were averaged and corrected for background count. Mean cpm data was tabulated by group and % inhibition by a test compound was calculated as (corrected cpm control-corrected. cpm sample/control)×100=% inhibition. […]

A431 = assay: Inhibition of cancer cell growth by cell number, A431; assay type: cell-based, Human; details: 48 hours exposure, Sulforhodamine B
Protocol: (§1) Human tumor cell lines were plated in 96-well plates (250 μl/well, 1-6×10^4 cells/ml) in RPMI 1640 medium, containing 5% FBS (Fetal Bovine Serum). […] After 48 hours exposure to test compounds, cells were fixed with trichloroacetic acid, and stained with Sulforhodamine B. After washing with trichloroacetic acid, bound dye was solubilized in 10 mM Tris base and optical density was determined using a plate reader. Under conditions of the assay the optical density is proportional to the number of cells in the well. IC50s (concentrations causing 50% inhibition of cell growth) were determined from the growth inhibition plots. The test procedure is described in details by Philip Skehan et. at J. Natl. Canc. Inst., 82, 1107-1112 (1990). […] Information about some of the cell lines used in these test procedures is available from the American […]: Cell Lines and Hybridomas, 1994 Reference Guide, 8th Edition. The Her2Neu cell line is a 3T3 line that has bbeen transfected with Her2 receptor kinase.

SW620 = assay: Inhibition of cancer cell growth by cell number, SW620; assay type: cell-based, Human; details: 48 hours exposure, Sulforhodamine B
Protocol: as §1

A2780DDP = assay: Inhibition of cancer cell growth by cell number, A2780DDP; assay type: cell-based, Human; details: 48 hours exposure, Sulforhodamine B
Protocol: as §1

A2780S = assay: Inhibition of cancer cell growth by cell number, A2780S; assay type: cell-based, Human; details: 48 hours exposure, Sulforhodamine B
Protocol: as §1

SKBR3 = assay: Inhibition of cancer cell growth by cell number, SKBR3; assay type: cell-based, Human; details: 48 hours exposure, Sulforhodamine B
Protocol: as §1

LOX = assay: Inhibition of cancer cell growth by cell number, LOX; assay type: cell-based, Human; details: 48 hours exposure, Sulforhodamine B
Protocol: as §1

MDA435 = assay: Inhibition of cancer cell growth by cell number, MDA435; assay type: cell-based, Human; details: 48 hours exposure, Sulforhodamine B
Protocol: as §1

T1 sequence (P28482 2-360): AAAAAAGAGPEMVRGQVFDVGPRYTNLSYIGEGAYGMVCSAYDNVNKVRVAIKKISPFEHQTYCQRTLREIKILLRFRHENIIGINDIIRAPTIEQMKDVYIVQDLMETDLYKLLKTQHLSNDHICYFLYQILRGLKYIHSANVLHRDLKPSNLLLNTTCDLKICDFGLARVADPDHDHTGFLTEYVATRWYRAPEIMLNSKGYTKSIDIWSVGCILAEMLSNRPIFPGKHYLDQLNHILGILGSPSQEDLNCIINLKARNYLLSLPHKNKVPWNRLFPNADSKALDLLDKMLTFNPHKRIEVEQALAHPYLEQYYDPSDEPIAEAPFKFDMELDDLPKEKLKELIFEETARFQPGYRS
T1 sequence (Q02750 whole entry, the tested form may be a part): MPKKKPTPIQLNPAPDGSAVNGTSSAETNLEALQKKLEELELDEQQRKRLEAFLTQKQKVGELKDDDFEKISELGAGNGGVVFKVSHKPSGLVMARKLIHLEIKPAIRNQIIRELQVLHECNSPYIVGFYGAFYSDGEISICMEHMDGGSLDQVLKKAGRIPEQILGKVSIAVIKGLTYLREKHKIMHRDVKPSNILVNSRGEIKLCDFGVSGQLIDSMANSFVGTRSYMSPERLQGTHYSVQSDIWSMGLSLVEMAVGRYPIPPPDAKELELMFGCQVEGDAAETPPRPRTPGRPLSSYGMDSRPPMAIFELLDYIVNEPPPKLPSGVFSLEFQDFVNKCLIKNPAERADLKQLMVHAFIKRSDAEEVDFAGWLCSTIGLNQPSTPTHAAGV

Compound | IC50 [1] [µM] | IC50, inhibition of cell growth, A431 (A431) [µg/mL] | IC50, inhibition of cell growth, SW620 (SW620) [µg/mL] | IC50, inhibition of cell growth, A2780DDP (A2780DDP) [µg/mL] | IC50, inhibition of cell growth, A2780S (A2780S) [µg/mL] | IC50, inhibition of cell growth, SKBR3 (SKBR3) [µg/mL] | IC50, inhibition of cell growth, LOX (LOX) [µg/mL] | IC50, inhibition of cell growth, MDA435 (MDA435) [µg/mL]
N#Cc1cnc2ncc([N+](=O)[O-])cc2c1Nc1cccc(Br)c1 [Example 21, 4-(3-Bromo-phenylamino)-6-nitro-[1,8]naphthyridine-3-carbonitrile] | 10 |  |  |  |  |  |  | 
1-[4-(3-Bromo-phenylamino)-3-cyano-[1,7]naphthyridin-6-yl]-4-diethylamino-pyridinium Fluoride [Example 65] |  | 59 | 42 | 52 | 31 | 41 | 56 | 47
